pIC50, pKd: −log10 of the molar value. One block for each substance: values may come before it. Where no end group is shown, it is not given here.
Legend:
[1] = target: fully zipped ternary SNARE mimetic; assay: Microscale Thermophoresis (MST) affinity analysis, fully zipped SNARE; design: species or system rat; details: 250 nM fluorescently labeled (Red-Tris-NTA) Gβ1γ2, SNARE 0.56 nM−19.5 μM, n = 3 technical replicates, read-out: KD, binding to fully zipped SNARE
Gβ1γ2/SNAP25 interaction = target: T1, Gβ1γ2/SNAP25 interaction (Homo sapiens, UniProt P60880); assay: Alphascreen competition-binding assay (peptides vs full-length Gβ1γ2/SNAP25); details: read-out: IC50, competition of SNAP25 C-terminal peptide with full-length SNAP25 for binding to Gβ1γ2, 95% CI: 1.27–2.70 μM, n = 21 technical replicates
T1 construct: made in house
From the text: Proximity of Alphascreen beads due to Gβ1γ2/SNAP25 interactions produces a luminescent signal. […] A value of 100% was assigned to the average of all conditions tested containing only DMSO as a positive control. The data points correspond to the mean ± SD percentage of positive control luminescence (n = 3 technical replicates). Data were fitted with a four-parameter non-linear regression model in GraphPad Prism to obtain IC50 values for each peptide (Table 1).
Alphascreen luminescence measurements were performed as described ([33]). […] An EC80 concentration of 180 nM purified His6-Gβ1γ2 was made in assay buffer. Peptide stocks in DMSO were spotted onto 384-well white OptiPlates (PerkinElmer Life Sciences) at concentration ranges of 1 nM to 100 μM using a Labcyte Echo 555 Omics acoustic liquid handler (Labcyte), with DMSO being back-added to a final concentration of 0.1%. […] Subsequent to incubation while shaking for an additional 5 min, 10 μl of Alphascreen Histidine Detection Kit (nickel chelate) acceptor beads were added to a final concentration of 20 μg/ml in assay buffer. […] After being spun down briefly to settle all fluid at the bottom of the well, plates were incubated for an additional 1 h at 27 °C before being read in the EnSpire. […] IC50 concentrations for each peptide were determined by sigmoidal dose-response curve-fitting with variable slope.

SNAP25 = details: read-out: Potency in competing with full-length Gβ1γ2 for binding to SNAP25; peptide competition studies; cited from earlier work
From the text: The importance of the N-terminal binding site is supported by the findings presented here as well as by previous findings, both in cell-based assays and in vitro binding studies ([10], [39]).

[2] = system: partially zipped and fully zipped ternary SNARE mimetics; tSNARE; assay: Peptide array / far-Western blot with ternary SNARE mimetics and tSNARE; type: binding, rat; details: 0.5 μM SNARE protein, far-Western probed for SNAP25
From the text: Binding was quantified as a fraction of the densitometric signal of a positive control peptide corresponding to residues 48 to 62 of rat complexin-1, which interacts with the ternary SNARE complex in co-crystal structures ([41], [51], [52]).
Quantification of (A) Gβ1 and (B) Gγ2 peptides binding to the partially zipped (black striped bars) and fully zipped SNARE (gray bars). Densitometry measurements were normalized to a positive control peptide spot corresponding to a portion of the rat complexin-1 central helix (residues 48–62). Bar graphs represent the mean ± SD of three technical replicates. A, both SNARE mimetics interact with the N-terminal α-helix (H1, red), L1 (orange), B1 (yellow), and B2 (green) of Gβ1. […]
Peptide array synthesis was performed using the ResPep SL peptide synthesizer (Intavis AG) according to standard SPOT synthesis protocols ([44], [70]). […] Spots were detected using HRP-conjugated secondary antibodies as described by the manufacturer. For densitometric analysis comparing Gβ and Gγ isoforms, the signal in individual dots was quantified as a percentage of total density detected on the membrane (Quantity One and Image Lab, Bio Rad, and Image J [Schneider et al., 2012]). […] Quantification of Gβ1 and Gγ2 peptide spots binding to ternary SNARE mimetics was performed by normalizing within each blot to a positive control corresponding to residues 48 to 62 of complexin-1. […]

T1 sequence (P60880 whole entry): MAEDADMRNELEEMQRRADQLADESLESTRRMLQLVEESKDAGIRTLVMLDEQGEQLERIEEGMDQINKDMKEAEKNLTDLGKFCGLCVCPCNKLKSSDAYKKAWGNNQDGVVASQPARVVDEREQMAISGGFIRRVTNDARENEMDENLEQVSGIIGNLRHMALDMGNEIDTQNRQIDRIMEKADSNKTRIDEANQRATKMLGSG

pKd [1]: < 4.89
Substance: Gβ1γ2: His-tagged soluble Gβ1γ2 (C68S) heterodimer purified from Sf9 cells

pIC50 (Gβ1γ2/SNAP25 interaction): 5.74
Substance: TRIDEANQRATKMLGSG

Substance: Gβ1 residues 328 to 337: peptide corresponding to Gβ1 residues 328 to 337, from ref 39 (ATGSWDSFLK; UniProt P62873 328-337, looked up, fragment)
pIC50 (SNAP25): ~4.55

Substance: Gγ2 peptide 19: 15-mer Gγ2 array peptide number 19, membrane-coupled (PASENPFREKKFFCA; also: C-terminus coupled to the membrane)
Binding pattern, tSNARE versus ternary SNARE mimetics [2]: bound to tSNARE but not ternary SNARE
